Experiment: Partition studies between organic solvent and water
Format: physicochemical
Details: for affinity to organic solvents as compared to aqueous media / solubility in organic versus aqueous solvents: conclusion in words from the partition studies
Procedure: 1,2-O-Cyclohexylidene-6-deoxy-β-L-talofuranose (197 mg) was partitioned between water (10 mL) and methylene chloride (10 mL), layers separated and the residual amount of solutions in the separatory funnel were partitioned with extra amount of water (5 mL) and methylene chloride (5 mL). The combined organic phases were evaporated and dried in vacuo (50° C., <1 mbar, 1 hour) to give 140 mg of the title compound. The aqueous solution gave 53 mg after lyophilisation and drying in vacuo (50° C., <1 mbar, 2 hrs). Using the same procedure, partition between ethyl acetate and water provided 127 mg of the title compound from ethyl acetate phase and 70 mg from the aqueous phase.
Analogously, 1,2-O-isopropylidene-6-deoxy-β-L-talofuranose (150 mg) was partitioned between methylene chloride (24 mg) and aqueous phase (126 mg). Partition between ethyl acetate and water furnished 7 mg and 143 mg of the title compound, respectively.

logP (solvent system CH2Cl2-water)	logP (solvent system ethyl acetate-water)	SMILES	affinity to organic solvents as compared to aqueous media	solubility in organic versus aqueous solvents
0.72	0.79	C[C@H](O)[C@H]1O[C@@H]2OC(C)(C)O[C@@H]2[C@@H]1O [1,2-O-isopropylidene-6-deoxy-β-L-talofuranose]	higher affinity to aqueous medium	highly soluble in aqueous solutions and almost insoluble in organic solvents
		C[C@H](O)[C@H]1O[C@@H]2OC3(CCCCC3)O[C@@H]2[C@@H]1O [6-deoxy-1,2-O-cyclohexylidene-β-L-talofuranose]	higher affinity to organic solvents as compared to aqueous media	much higher solubility of compound 1G in organic solvents as compared to aqueous solvents
